In patent publication US20070203225A1, “METHOD OF INCREASING ENDOGENOUS ADIPONECTIN PRODUCTION AND LEPTIN PRODUCTION” (priority 2001, published 2007):
“Also recorded” adds a separate entry of the source.

Tests used:
Assay type in all cases: cell-based
[1] = tested on: isolated rat adipocytes; assay: Glucose utilization (uptake) by isolated cultured rat adipocytes; details: for effect on glucose utilization (in words): insulin 0.16 to 1.6 nM
Method: (§1) Cell isolation/preparation: Adipocytes are prepared from epididymal fat pads from male Sprague-Dawley rats weighing 300-600 g. Epididymal fat depots are resected from halothane anesthetized rats under aseptic conditions and adipocytes are isolated by collagenase digestion by the Rodbell method (Rodbell M. Metabolism of isolated fat cells. I. Effects of hormones on glucose metabolism and lipolysis. J Biol Chem. 1964; 239: 375-380), with minor modifications as previously described (Mueller W M, Gregoire F M, Stanhope K L, Mobbs C V, Mizuno T M, Warden C H, Stem J S, Havel P J. Evidence that glucose metabolism regulates leptin secretion from isolated adipocytes. Endocrinology 139: 551-558, 1998; Mueller W M, Stanhope K L, Gregoire F, Evans J L, Havel P J. Effects of metformin and vanadium on leptin secretion from cultured rat adipocytes. Obesity Res. 8: 530-539, 2000; Medina E A, Stanhope K L, Mizuno T M, Mobbs C V, Gregoire F, Hubbard N E, Erickson K L, Havel P J. Effects of tumor necrosis factor alpha on leptin secretion and gene expression: relationship to changes of glucose metabolism in isolated rat adipocytes. Int J Obes Relat Metab Disord. 23: 896-903, 1999.). The isolated adipocytes are then incubated for 30 minutes at 37 C before being plated and cultured on Matrigel-coated plates.
(§2) Adipocyte Culture: Adipocytes are maintained in culture anchored to a basement membrane matrix (Matrigel, Becton Dickinson, Franklin Lakes, N.J.) or collagen from Cohesion Technologies, (Palo Alto, Calif.). Although all in vitro systems have inherent advantages and disadvantages, advantages of this system compared with cultures containing free-floating adipocytes are that the matrix simulates their normal basement membrane attachment and that the cells are maintained in close proximity to each other, allowing direct cell to cell contact. Together the cell contact and basement membrane attachment help to maintain differentiation, since adipocytes have a strong tendency to dedifferentiate in long-term (>24 h) culture. In addition, the matrix and the small amount of serum in the media both contain growth factors, which are also likely to help in maintaining cell differentiation. Furthermore, the adipocytes in this system are not exposed to toxic levels of oxygen at the interface of the media and the incubator atmosphere, as opposed to free-floating adipocytes which aggregate at the surface of the media. An advantage of the system over those containing minced adipose tissue is that all of the cells in the culture are equally exposed to the nutrients and the oxygen dissolved in the media. Thus, although clearly different from the in vivo situation, this system provides a more physiological environment than most systems for maintaining adipocytes in long-term culture.
(§3) In culturing each suspension, Matrigel is first thawed on ice to a liquid and uniformly applied to the surface of culture dishes (300 μl Matrigel/35 mm well). After the incubation period, 150 μl of the adipocyte suspension (2:1 ratio of packed cells to media) are plated on the Matrigel or collagen matrix. Adipocytes from each suspension are thoroughly mixed with a transfer pipette before plating to insure that a similar number adipocytes with a similar size distribution are added to the control and experimental wells for each suspension. The warmth of the added cells and buffer causes the Matrigel to gel around the adipocytes, or the neutralization of the acidic pH of the collagen solution to 7.0 solidifies the collagen, and both of these techniques effectively anchor the adipocytes to the culture dish. After a 30 minute incubation at 37° C., 2 ml of warm culture medium is added. The cells are maintained in an incubator at 37° C. for 96 hours with 6% CO2. Aliquots of adipocytes from each animal are divided into wells, with the different concentrations of insulin or other agents to be tested. In each plate an appropriate control well contains adipocytes from the same animal. […]

[2] = tested on: isolated rat adipocytes; assay: Leptin secretion/production by isolated cultured rat adipocytes (RIA)
Method: as §1, §2, §3

[3] = tested on: isolated rat adipocytes; assay: Incorporation of glucose carbon into triglyceride in cultured adipocytes
Method: Incorporation of Glucose Carbon into Triglyceride: To measure glucose incorporation into triglyceride, cultures are exposed to media containing 0.01 uCi/ml of ^14C-glucose. After 96 hr, media and extracellular lipid is removed from the well and methanol added. Then scrape the collagen-cell matrix from the well and transfer into a 50 ml glass tube. Rinse the well and scrape again in methanol to assure complete transfer of cells. Total triglycerides will be extracted using the Folch method (Folch, 1957). An aliquot of the lipid extract will be placed into vials containing scintillation fluid then radioactivity will be measured.
The first measurement is used to calculate the amount of glucose incorporated into triglycerides. Another aliquot of the lipid extract is placed into pre-weighed aluminum pans to determine the total amount of triglyceride per well. The remaining lipid is saponified and acidified to separate the glycerol and fatty acids. An aliquot of the lipid extract is placed into vials containing scintillation fluid and counted. This second count represents the ^14C-glucose incorporation into fatty acids. By subtraction, the amount that was incorporated into triglyceride though glycerol is also determined. Glucose incorporation into triglyceride and into the fatty acid portion of the triglyceride are calculated by multiplying disintegration per min by total ug of glucose/well over the total DPM/well.

[4] = tested on: isolated rat adipocytes; assay: Lactate production and proportion of glucose anaerobically metabolized to lactate in isolated cultured rat adipocytes
Method: as §1, §2, §3

[5] = DTNB 100.0 μM + insulin 0.48 nM vs control (insulin only)
[6] = DTNB 100.0 μM + insulin 0.48 nM, isolated rat adipocytes, 96 h culture
[7] = DTNB 100 μM, NEM 0.1 μM, DCA 2 mM

## O=C(O)c1cc(SSc2ccc([N+](=O)[O-])c(C(=O)O)c2)ccc1[N+](=O)[O-] [DTNB, 5,5′-Dithiobis(2-nitrobenzoate)]
[1]; [5]
  Change in Parameter: Glucose Uptake (μg) over 96 h: +348 ± 114 μg
[1]; [6]
  Glucose Uptake (μg) over 96 h: 1384 ± 94 µg
[1]; [7]
  effect on total / insulin-mediated glucose utilization (in words): increased
[2]; [5]
  % ΔLeptin Produced over 96 h: +57.3 ± 5.8%
  % Δ[Leptin] (ng/ml) at 96 h: +60.2 ± 8.3%
  Change in Parameter: Leptin (ng) Produced over 96 h: +18.4 ± 2.3 ng
  Change in Parameter: [Leptin] (ng/ml) at 96 h: +6.3 ± 0.8 ng/ml
[2]; [6]
  Leptin (ng) Produced over 96 h: 55.6 ± 2.9 ng
  [Leptin] (ng/ml) at 96 h: 17.2 ± 0.9 ng/mL
[2]; PDH kinase inhibitors DTNB, NEM, DCA, cultured adipocytes
  effect on leptin production/secretion (in words): most potent stimulator; also recorded: increase
[2]; PDH kinase inhibitors vs control: DTNB 100 μM, NEM 0.1 μM, DCA 2 mM, cultured adipocytes
  increase of leptin production/secretion: approximately 60%
[3]; [7]
  effect on proportion of glucose incorporated into TG (in words): without affecting
[4]; [5]
  Change in Parameter: Glucose to Lactate (%): −9.5 ± 1.0%
  Change in Parameter: Lactate Produced (μg) over 96 h: -53 ± 25 µg
[4]; [6]
  Glucose to Lactate (%): 13.1 ± 1.4%
  Lactate Produced (μg) over 96 h: 179 ± 22 µg
[4]; [7]
  effect on glucose not converted to lactate or incorporated into TG (OTHER; glucose flux into oxidation), by subtraction (in words): increased
  effect on proportion of glucose anaerobically metabolized to lactate (in words): decreased
[4]; DTNB 100 μM, NEM 0.1 μM, DCA 0.1 to 5.0 mM
  effect on lactate production (in words): without any increase

## insulin
[1]
  effect on glucose utilization (in words): concentration dependent increase
[1]; listed as Insulin
  effect on glucose utilization (in words): increases
[2]; insulin 0.16 to 1.6 nM
  effect on leptin secretion (in words): concentration-dependent increases; also recorded: concentration dependent increase
[3]; insulin 0.16 to 1.6 nM, listed as Insulin
  effect on proportional incorporation of glucose into triglyceride (in words): does not affect; also recorded: does not alter
[4]; insulin 0.16 to 1.6 nM
  effect on proportion of glucose converted to lactate (in words): decreases
  effect on proportion of glucose not converted to lactate or triglyceride (OTHER), by subtraction (in words): increases
